Results reported in article PMC6345595 (American journal of clinical oncology, 2019).
Blank lines part the entries; values can stand above or below the compound they belong to.

How the values were obtained:
[1] = Plasma pharmacokinetics of dovitinib, gemcitabine and capecitabine by LC/MS/MS; assay type: in vivo, human; conditions: for half-life: human, oral, 300 mg, median half-life (T1/2), dovitinib 300 mg
FGF23 = assay: Plasma FGF23 sandwich ELISA; assay type: in vivo, human; conditions: out of 5 patients with paired samples; during the first cycle; dovitinib 300 mg daily 5 days on and 2 days off with gemcitabine and capecitabine
basic FGF (bFGF) = assay: Plasma bFGF Quantikine ELISA; assay type: in vivo, human; conditions: 5 patients, baseline vs after 19 days of dovitinib 300 mg
VEGF = assay: Plasma VEGF Quantikine ELISA; assay type: in vivo, human; conditions: 5 patients, baseline vs after 19 days of dovitinib 300 mg
[2] = human, in vivo
[3] = target: fibroblast growth factor receptors (FGFRs); conditions: read-out: IC50 against FGFRs; cited from earlier work
CYP 1A1/2 = conditions: cited from earlier work
[4] = AUC 0–8 hours, Day 1, capecitabine 1300 mg/m^2 total daily oral dose divided twice a day, concurrently with dovitinib 300 mg and gemcitabine, N=7
[5] = Day 1, capecitabine 1300 mg/m^2 total daily oral dose divided twice a day, concurrently with dovitinib 300 mg and gemcitabine, plasma, N=5
[6] = Day 1, capecitabine 1300 mg/m^2 total daily oral dose divided twice a day, concurrently with dovitinib 300 mg and gemcitabine, plasma, N=7
[7] = AUC 0–7.5 hours, Day 1, gemcitabine 1000 mg/m^2 intravenously, concurrently with dovitinib 300 mg and capecitabine, N=7

AUC Max [1, 4]: 14439 ng·h/mL
AUC Min [1, 4]: 488 ng·h/mL
T1/2 Max [1, 5]: 4.07 h
T1/2 Min [1, 5]: 0.68 h
Cmax Max [1, 6]: 30300 ng/mL
Cmax Min [1, 6]: 98.8 ng/mL
SMILES: CCCCCOC(=O)Nc1nc(=O)n([C@@H]2O[C@H](C)[C@@H](O)[C@H]2O)cc1F [capecitabine]

SMILES: CN1CCN(c2ccc3nc(-c4c(N)c5c(F)cccc5[nH]c4=O)[nH]c3c2)CC1 [dovitinib]
difference in dovitinib level between Day1 and 19 (autoinduction) ([1]; 300 mg daily dose on 5 days on and 2 days off schedule): did not observe significant difference
accumulation following 3 weeks of dosing ([1]; dovitinib 300 mg dose, Day 1 vs Day 19 Cmax and AUC): slight accumulation
half-life ([1]; plasma, Day 1): ~15 h
half-life ([1]; plasma, Day 19): ~13 h
patients with increased plasma FGF23 level (FGF23): 4 patients
changes of bFGF plasma level (basic FGF (bFGF)): no observable trend
changes of VEGF plasma level (VEGF): no observable trend
patients with dose limiting toxicity (grade 3 colitis) ([2]; 1 cycle): 1
recommended dose for expansion / RP2D ([2]; po, 21 day): 300 mg
IC50 [3]: < 10 nM
metabolizing enzymes (CYP 1A1/2): mainly metabolized by CYP 1A1/2 and flavin-containing monooxygenase

AUC Max [1, 7]: 12222 ng·h/mL
AUC Min [1, 7]: 6370 ng·h/mL
SMILES: Nc1ccn([C@@H]2O[C@H](CO)[C@@H](O)C2(F)F)c(=O)n1 [gemcitabine]
